In data set [1] the test system is hUC-MSCs. The data set can be described thus: Immediate cell survival rate of hUC-MSCs by trypan blue counting after 72 h cryopreservation at 4° C. The data set is classed as cell-based, human. The following applies: metabolite added to Hibernate-A basic cryopreservation solution, FIG. 3. From the text:
(§1) Cells used in this experiment were: hUC-MSCs (donated umbilical cord tissues from the Biotherapy Center of the Third Affiliated Hospital of Sun Yat-sen University and newborns).
(§2) The number of cells used in this experiment was: 1×10^6 cells.
(§3) The basic cryopreservation solution used in this experiment was Hibernate™-A medium (Thermofisher, catalog number: GIBCO A1247501), and the components were shown in Table 1.
(§4) The experimental groups of this example included: Hibernate™-A, Hibernate™-A+TUDCA, Hibernate™-A+QCA, and Hibernate™-A+Phosphocholine.
(§5) The experimental operation of this example included: 1 mL of the resuspended hUC-MSCs cells in Hibernate™-A basic cryopreservation solution with the above-mentioned specified metabolites added were placed in a 5 mL EP tube, allowed to stand at room temperature for 20 min, and then placed in a 4° C. refrigerator shaker for slow shaking to allow cryopreservation for 72 h. After cryopreservation for 72 h, the cells were centrifuged and counted with trypan blue to calculate the cell survival rate, and then plated on a 96-well plates for CCK8 cell proliferation assay. The remaining cells were continued to be plated on a 6-well plate and placed in a 37° C. cell culture incubator to observe the subsequent cell status.

Data set [2] concerns hUC-MSCs. Kind of data set: Culture of hUC-MSCs plated after 72 h cryopreservation (cell status by light microscopy, cell number after 3 days). It counts as cell-based, human. The following applies: hUC-MSCs after 72 h cryopreservation in Hibernate-A plus metabolite, 37° C., FIG. 3.
Description: as §1, §2, §3, §4, §5

Data set [3] relates to Hepatocytes. The data set can be described thus: Cryopreservation and rewarming of hepatocytes (MitoNeoD mitochondrial ROS, real-time imaging of cell membrane integrity). It counts as cell-based. The following applies: UW solution with 50 μM phosphocholine, 4° C. 12 h, rewarming medium with 500 μM phosphocholine, 37° C. 2 h, FIGS. 7A-7B. As for the experimental part: Hepatocytes cultured under normal conditions served as a 37° C. control. For cold exposure treatment, the medium was replaced with UW solution at room temperature for 15 min, and the cells in UW solution (containing 50 μM phosphocholine) were transferred to a 4° C. refrigerator for 12 h. Rewarming involved taking cells out of the refrigerator and culturing with a pre-chilled medium (containing 500 μM phosphocholine). After allowing to stand for 15 min at room temperature, the cells were transferred to a 37° C. incubator for 2 h. The integrity of cell membranes is dynamically monitored by Real-time imaging using MitoNeoD live cell dye to assess the mitochondrial ROS and transfection of a plasmid carrying the mNeonGreen tag and the phospholipase Cδ PH domain.

For data set [4], the system named is rat liver. The data set can be described thus: Static cold storage and rewarming/reperfusion of isolated rat liver (H&E sectioning, TUNEL staining). The following applies: phosphocholine supplemented during rewarming/reperfusion, 4° C. 48 h, perfused 37° C. 2 h, FIGS. 8A-8C. How it is done: 2-3 month old male/female SD rats or 2-3 month old golden hamsters were fasted overnight and anesthetized by inhalation of isoflurane, and then given 50 IU of heparin. The bile duct was cannulated with a PE-10 catheter, and the portal vein was cannulated with a 22-G Introcan catheter. The liver was washed with physiological saline, UW, or UW supplemented with phosphocholine (50 μM) and collected. A perfusion system was established in a circulation mode, and 250 mL of a Krebs-Henseleit (KH) bicarbonate buffer or KH buffer supplemented with phosphocholine (500 μM) was prepared. Oxygenation was conducted in a mixed gas of 95% O2 and 5% CO2 through a fiber oxygenator to a partial pressure of oxygen exceeding 500 mmHg. The liver was stored at 4° C. for 48 h, equilibrated at room temperature for 10 min, and perfused at 37° C. for 2 h. A flow rate was set in pressure control mode, and a portal vein pressure (PVP) was kept constant at 12 mmHg. The flow rate and PVP were automatically monitored and recorded. The portal vein resistance (PVR) was calculated as follows: PVR (mmHg/mL×min×g liver)=PVP (12 mmHg)/portal vein flow rate (mLxminxg liver). Liver samples were fixated in 4% paraformaldehyde for subsequent H&E sectioning and TUNEL staining. […]

The text below walks through data of patent US20250160318A1, “CRYOPRESERVATION SOLUTION AND USE THEREOF IN REDUCING ISCHEMIA-REPERFUSION INJURY (IRI) OF CELL, TISSUE, OR ORGAN” (Third Affiliated Hospital, Sun Yat-sen University, priority 2023, published 2025).

With `O=C(O)c1ccnc2ccccc12` [QCA, quinoline-4-carboxylic acid], the “immediate cell survival rate versus basic cryopreservation solution control” value in data set [1] is recorded as “slightly lower”. In data set [2], the “total number of cells obtained after being plated and cultured for 3 days versus basic cryopreservation solution control” value was “significantly more”.

On to `C[C@H](CCC(=O)NCCS(=O)(=O)[O-])[C@H]1CC[C@H]2[C@@H]3[C@@H](O)C[C@@H]4C[C@H](O)CC[C@]4(C)[C@H]3CC[C@]12C.[Na+]` [TUDCA, sodium tauroursodeoxycholate], for which the “immediate cell survival rate versus basic cryopreservation solution control” value in data set [1] is “significantly higher”. Besides, the “total number of cells obtained after being plated and cultured for 3 days versus basic cryopreservation solution control” value in data set [2] was “significantly more”.

Regarding `C[N+](C)(C)CCOP(=O)([O-])O` [phosphocholine], the “immediate cell survival rate versus basic cryopreservation solution control” value in data set [1] is reported as “slightly lower”. In data set [2], the “total number of cells obtained after being plated and cultured for 3 days versus basic cryopreservation solution control” value is recorded as “significantly more”. In addition, the “ROS in hepatocyte mitochondria” value in data set [3] (MitoNeoD) is listed as “reduce”. For the same compound, the “integrity of hepatocyte membrane” value in data set [3] (mNeonGreen-PLCδ PH domain imaging) was “maintain the integrity”. Besides, in data set [4], the “cell apoptosis versus control group (TUNEL staining)” value is on record as “milder” and the “sinus cavity (H&E sections)” value is given as “apparently normal”.
